Test [1] deals with PRMT5/MEP50 complex (Homo sapiens, UniProt O14744). Kind of test: Inhibition of recombinant human fetal brain FLAG-tagged PRMT5/full length human testis 6His-tagged MEP50 expressed in baculovirus infected insect Sf9 cells using human histone H4 (1 to 15 residues) as substrate preincubated for 30 mins followed by [3H]-SAM addition.
Test [2] addresses Protein arginine N-methyltransferase 5 (Homo sapiens, UniProt O14744). Kind of test: Inhibition of PRMT5 in human Z138 cells assessed as decrease in di-methyl arginine levels after 96 hrs by Western blot method. Type of test: cell-based. In general terms: In western blotting, separated proteins are transferred to a membrane and probed.
Test [3] can be described thus: Antiproliferative activity against human Z138 cells assessed as inhibition of cell viability after 5 days by Cell-Titer Glo assay. Type of test: functional, cell-based. Particulars: Z-138, 120 h.

Chain of Protein arginine N-methyltransferase 5 (O14744 whole entry): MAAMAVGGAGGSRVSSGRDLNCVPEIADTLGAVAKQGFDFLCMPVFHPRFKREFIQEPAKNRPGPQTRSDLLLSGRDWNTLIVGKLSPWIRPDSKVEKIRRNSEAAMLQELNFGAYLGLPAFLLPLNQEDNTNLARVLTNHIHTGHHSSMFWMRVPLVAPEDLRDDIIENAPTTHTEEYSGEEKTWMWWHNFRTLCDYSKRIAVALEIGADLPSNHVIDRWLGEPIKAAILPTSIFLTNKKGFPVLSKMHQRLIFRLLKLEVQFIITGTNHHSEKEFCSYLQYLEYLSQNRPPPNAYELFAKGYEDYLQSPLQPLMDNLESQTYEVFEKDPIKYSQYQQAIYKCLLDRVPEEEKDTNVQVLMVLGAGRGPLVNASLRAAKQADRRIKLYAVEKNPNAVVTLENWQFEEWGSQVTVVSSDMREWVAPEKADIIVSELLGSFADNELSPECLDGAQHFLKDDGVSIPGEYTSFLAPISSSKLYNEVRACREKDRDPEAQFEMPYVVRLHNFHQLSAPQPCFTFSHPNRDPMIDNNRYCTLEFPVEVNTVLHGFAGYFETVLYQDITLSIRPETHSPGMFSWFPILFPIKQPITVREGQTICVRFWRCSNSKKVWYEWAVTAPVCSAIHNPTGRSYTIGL
Chain of PRMT5/MEP50 complex (O14744 whole entry, the tested form may be a part): as the sequence (O14744 whole entry) above
Chain of PRMT5/MEP50 complex (Q9BQA1 whole entry, further chain, the tested form may be a part): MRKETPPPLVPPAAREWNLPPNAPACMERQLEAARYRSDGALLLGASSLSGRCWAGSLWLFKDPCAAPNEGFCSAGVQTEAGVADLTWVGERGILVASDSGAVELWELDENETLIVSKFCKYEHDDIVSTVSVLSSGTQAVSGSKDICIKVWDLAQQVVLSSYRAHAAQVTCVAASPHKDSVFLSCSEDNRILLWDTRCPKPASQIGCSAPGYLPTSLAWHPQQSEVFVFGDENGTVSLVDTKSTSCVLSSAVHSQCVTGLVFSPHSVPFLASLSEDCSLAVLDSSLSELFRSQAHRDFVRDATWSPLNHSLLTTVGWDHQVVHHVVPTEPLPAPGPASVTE

Broadly, the IC50 is the midpoint of a concentration-inhibition curve. A word on the EC50: it is the concentration that produces a half-maximal response. In the case of `OC(COc1cccc(-c2ccc3ncn(C4CCNCC4)c3c2)c1)CN1CCc2ccccc2C1` (stereo not drawn), in test [1], the concentration for half-maximal inhibition (IC50) is less than 100 nM. Further, the concentration giving a half-maximal response (EC50) in test [2] was in the range of 101 to 1000 nM; in test [3] it was 1000 to 10000 nM.

Turning to `CN1CCC(n2cnc3ccc(-c4cccc(OCC(O)CN5CCc6ccccc6C5)c4)cc32)C1` (stereo not drawn), the half-inhibitory concentration (IC50) in test [1] was less than 100 nM. Further, the EC50 in test [2] lay in the range of 101 to 1000 nM; in test [3], 1000 to 10000 nM.

For the molecule `Cn1cnc(C(=O)Nc2cccc(OCC(O)CN3CCc4ccccc4C3)c2)c1` (stereo not drawn), in test [1], the IC50 was in the range of 1000 to 10000 nM. Moreover, the EC50 was 1000 to 10000 nM in test [2] and more than 20000 nM in test [3].

In the case of `Cn1cnc2cnc(-c3cccc(OCC(O)CN4CCc5ccccc5C4)c3)nc21` (stereo not drawn), the IC50 in test [1] fell in the range of 101 to 1000 nM. Also, the EC50 lay in the range of 101 to 1000 nM in test [2] and 1000 to 10000 nM in test [3].

As to `Cn1cnc2ccc(-c3cc(NCC(O)CN4CCc5ccccc5C4)ncn3)cc21` (stereo not drawn), in test [1], the IC50 lay in the range of 101 to 1000 nM. Besides, the EC50 lay within 101 to 1000 nM in test [2] and 1000 to 10000 nM in test [3].

For the molecule `Cn1cc2ccc(-c3cccc(OCC(O)CN4CCc5ccccc5C4)c3)nc2n1` (stereo not drawn), the IC50 in test [1] is less than 100 nM. Further, the EC50 in test [2] lay in the range of 101 to 1000 nM; in test [3], 10000 to 40000 nM.

As to `Cn1ncc2ccc(-c3cc(NCC(O)CN4CCc5ccccc5C4)ncn3)cc21` (stereo not drawn), the 50% inhibitory concentration (IC50) in test [1] lay in the range of 101 to 1000 nM. For the same molecule, the EC50 in test [2] was 101 to 1000 nM; in test [3], more than 20000 nM.

For the molecule `CC(C)Oc1ccc(F)c(-c2cccc(OCC(O)CN3CCc4ccccc4C3)c2)c1` (stereo not drawn), the IC50 in test [1] lay in the range of 101 to 1000 nM. Also, the results for the EC50 in test [2] and in test [3] were 1000 to 10000 nM and more than 20000 nM, respectively.

For the molecule `OC(COc1cccc(-c2ccc3ncn(C4CNC4)c3c2)c1)CN1CCc2ccccc2C1` (stereo not drawn), the 50% inhibitory concentration (IC50) in test [1] lay within 101 to 1000 nM. Also, the EC50 in test [2] and in test [3] was 1000 to 10000 nM each time.

Turning to `CNC(=O)c1cncc(-c2cccc(OCC(O)CN3CCc4ccccc4C3)c2)c1` (stereo not drawn), the 50% inhibitory concentration (IC50) in test [1] lay within 1000 to 10000 nM. The results for the EC50 in test [2] and in test [3] were 1000 to 10000 nM and more than 20000 nM, respectively.

For the molecule `Cn1cnc2c1CN(c1cccc(OCC(O)CN3CCc4ccccc4C3)c1)CC2` (stereo not drawn), the IC50 in test [1] was in the range of 101 to 1000 nM. The values for the EC50 in test [2] and in test [3] were 1000 to 10000 nM and more than 20000 nM, respectively.

Regarding `Cc1cn(C)c2cc(-c3cccc(OCC(O)CN4CCc5ccccc5C4)c3)ccc12` (stereo not drawn), the IC50 in test [1] fell in the range of 101 to 1000 nM. For the same molecule, the half-maximal effective concentration (EC50) in test [2] was 1000 to 10000 nM; in test [3], more than 20000 nM.

As for `CNC(=O)c1cccc(-c2cccc(OCC(O)CN3CCc4ccccc4C3)c2)c1` (stereo not drawn), the IC50 in test [1] was in the range of 101 to 1000 nM. For the same molecule, the EC50 in test [2] is 1000 to 10000 nM; in test [3] it was more than 20000 nM.

As for `O=C(c1cccc(-c2cccc(OCC(O)CN3CCc4ccccc4C3)c2)c1)N1CCCC1` (stereo not drawn), in test [1], the IC50 is 101 to 1000 nM. Moreover, the EC50 in test [2] fell in the range of 1000 to 10000 nM; in test [3] it was 10000 to 40000 nM.

In the case of `OC(COc1cccc(-c2ccc3ncn(C4CCNC4)c3c2)c1)CN1CCc2ccccc2C1` (stereo not drawn), in test [1], the IC50 was less than 100 nM. Also, the values for the concentration giving a half-maximal response (EC50) in test [2] and in test [3] were 101 to 1000 nM and 1000 to 10000 nM, respectively.

As to `OC(COc1cccc(-c2ccc3ncoc3c2)c1)CN1CCc2ccccc2C1` (stereo not drawn), in test [1], the half-maximal inhibitory concentration (IC50) lay within 101 to 1000 nM. For the same molecule, the EC50 in test [2] lay in the range of 1000 to 10000 nM; in test [3] it was 10000 to 40000 nM.

On to `OC(COc1cccc(-c2cc(OC(F)(F)F)ccc2Cl)c1)CN1CCc2ccccc2C1` (stereo not drawn), for which the IC50 in test [1] was 101 to 1000 nM. Further, the EC50 in test [2] was 10000 to 40000 nM; in test [3], more than 20000 nM.

Take `Cn1cnc2ccc(-c3cc(NCC(O)CN4CCc5ccccc5C4)ccn3)cc21` (stereo not drawn): in test [1], the IC50 was in the range of 101 to 1000 nM. In addition, the EC50 was in the range of 1000 to 10000 nM in test [2] and 10000 to 40000 nM in test [3].

`Cn1cnc2ccc(-c3cncc(NCC(O)CN4CCc5ccccc5C4)c3)cc21` (stereo not drawn): the IC50 in test [1] was less than 100 nM. Besides, the EC50 was less than 100 nM in test [2] and 1000 to 10000 nM in test [3].

Regarding `Cn1cnc2ccc(-c3cccc(OCC(O)CN4CCc5ccccc5C4)c3)nc21` (stereo not drawn), the IC50 in test [1] is less than 100 nM. The EC50 in test [2] and in test [3] was 101 to 1000 nM in each case.

Take `CN1CC(n2cnc3ccc(-c4cccc(OCC(O)CN5CCc6ccccc6C5)c4)cc32)C1` (stereo not drawn): the IC50 in test [1] was less than 100 nM. For the same molecule, the values for the EC50 in test [2] and in test [3] were 101 to 1000 nM and 1000 to 10000 nM, respectively.
